Data: patent EP4293019A1, “4-SUBSTITUTED (1H-BENZO[D]IMIDAZOL-2-YL)-1H-PYRAZOLES AS BUB1 INHIBITORS USEFUL FOR TREATING CANCERS” (Netherlands Translational Research Center Holding B.V., priority 2022, dated 2023)

Columns and labels:
[1] = target: T1, hBUB1 (Homo sapiens, UniProt O43683); assay: hBUB1 kinase activity assay (biochemical fluorescence polarization assay, IMAP); details: BUB1/BUB3 3.26 nM, ATP 15 µM, BUB1/BUB3 substrate 75 nM; N=2, n=2; read-out: hBUB1 pIC50 (converted)
T1 construct: purchased Carna Biosciences 05-187
Experimental: This protocol describes how the Kinase Activity Assay was performed to determine pIC50 values of compounds of general formula (I) against hBUB1.
Assays were performed in 384-well plates (Greiner, black, flat bottom, 781076) by sequential addition (final concentrations are indicated) of inhibitor (5 µL, 0.3 nM - 1 µM or 3 nM - 10 µM), BUB1/BUB3 (5 µL, 3.26 nM, Carna Biosciences (05-187), lot: 15CBS-0644 D), ATP (5 µL, 15 µM) and BUB1/BUB3 substrate (5 µL, 75 nM, Carna Biosciences (05-187MSSU)), all as 4x working solutions. The final concentration of DMSO was 1%. Assay reactions were stopped by addition of IMAP progressive binding reagent (20 µL, 1200x diluted, Molecular Devices (R8155), lot: 3117896). Each assay included the following controls: (i) a background control (treated with vehicle instead of inhibitor and BUB1/BUB3 substrate), (ii) MIN controls (treated with 5 µM BAY1816032 (MedChem Express) as inhibitor, used as 0% BUB1 activity) and (iii) MAX controls (treated with vehicle instead of inhibitor, used as 100% BUB1 activity). All inhibitors were tested in two separate assays and all inhibitor concentrations were tested in duplicate per assay (N=2, n=2).
For each assay, assay buffer (AB) was freshly prepared and consisted of 20 mM HEPES (prepared by diluting 1 M HEPES, pH 7.2), 5 mM MgCl2, 0.01% Tween-20 and 1 mM DTT. Stocks of inhibitors (in DMSO) were diluted in AB to obtain 4x working solutions (4% DMSO) and 5 µL was added to the assay plate. BUB1/BUB3 (3.26 µM (486 µg/mL) in storage buffer) was diluted in AB to obtain 13.0 nM of which 5 µL was added to all wells of the assay plate. The assay plate was centrifuged (1 min, 200 g) and incubated at RT for 30 min. ATP (4 mM in MilliQ) was diluted in AB to obtain 60 µM of which 5 µL was added to each well. BUB1/BUB3 substrate (1 mM) was diluted in 20 mM HEPES (prepared by diluting 1 M HEPES (pH 7.2) in MilliQ) to obtain 80 µM (this solution was freshly prepared every assay) and further diluted in AB to obtain 300 nM after which 5 µL was added to each well of the assay plate except for background control wells. The assay plate was centrifuged (1 min, 200 g) and incubated at RT in the dark for 180 min. IMAP progressive binding buffer A (5x) and IMAP progressive binding buffer B (5x) were mixed in a ratio to obtain 30% buffer A and 70% buffer B, which was subsequently diluted 5x in MilliQ. IMAP progressive binding reagent was diluted 600x in aforementioned mixture of buffer A and B (to obtain a 2x working solution) of which 20 µL was added to each well of the assay plate. The assay plate was centrifuged (1 min, 200 g) and incubated at RT in the dark for 90 min. Fluorescence polarization was measured on a CLARIOstar plate reader using the following settings: (i) optic settings → excitation = F: 482-16, dichroic = F: LP 504, emission = F: 530-40, (ii) optic = top optic, (iii) speed/precision = maximum precision, (iv) focus adjustment was performed for every assay and (v) gain adjustment was done by setting the target mP value to 35 mP for one of the MIN control wells. Data was normalized between MIN and MAX controls and data was plotted using GraphPad Prism 8.0 using "Nonlinear regression (curve fit)" and "log(inhibitor) vs. normalized response - Variable slope" to determine pIC50 values.
Inhibition is indicated as pIC50 ("-" = not measured). Compounds having an activity designated as "A" provided an pIC50 ≥ 7.0 (IC50 ≤100 nM); compounds having an activity designated as "B" provided an 6.3 ≤ pIC50 < 7.0 (100 nM<IC50 ≤ 500 nM); compounds having an activity designated as "C" provided an 6.0 ≤ pIC50 < 6.3 (500 nM < IC50 ≤ 1 µM); compounds having an activity designated as "D" provided an 6.0 < pIC50 ≤ 5.0 (1 µM < IC50 ≤ 10 µM); and compounds having an activity designated as "E" provided an pIC50 < 5.0 (IC50 >10 µM).

[2] = test system: U2OS cells; assay: Cellular proliferation assay (SRB proliferation assay); type: cell-based; details: Homo sapiens, 72 h treatment, SRB staining, N=2, n=3
Experimental: This protocol describes how the Cellular Proliferation Assay was performed to determine pIC50 values of compounds of general formula (I) against U2OS cells.
U2OS (human osteosarcoma) cells were purchased at ATCC and were tested on regular basis for mycoplasma contamination. Cultures were discarded after 2-3 months of use. Cells were cultured at 37°C under 7% CO2 in DMEM (Sigma Aldrich, D6546) supplemented with GlutaMAX (2 mM, ThermoFisher), 10% (v/v) heat-inactivated newborn calf serum (Seradigm), penicillin and streptomycin (200 µg/mL each, Duchefa) (complete medium). Medium was refreshed every 2-3 days and cells were passaged by trypsinization twice a week at 80-90% confluence. Cell viability was assessed by Trypan Blue exclusion and cell quantification using a TC20™ Automated Cell Counter (Bio-Rad).
Assays were performed in 96-well plates (Greiner, Cellstar, 655180) by seeding (day 0), treatment (day 1) and subsequent incubation for 72 h. Cells were fixed, stained and staining was subsequently dissolved after which absorbance was measured. Each assay included the following controls: (i) a background control (to which no cells were added), (ii) t0 controls (separate assay plate in which cells were fixed on day 1, used as 0% proliferation), (iii) nontreated controls (present in each assay plate, treated with vehicle and used as 100% proliferation). Cells were treated with different concentrations of indicated inhibitor. All inhibitors were tested in two separate assays and all inhibitor concentrations were tested in triplicate per assay (N=2, n=3).
For each assay, U2OS cells from 10 cm dishes were seeded into 96-well plates (3,000 cells/well) and subsequently incubated overnight to allow for cell adherence. Stocks of inhibitor and vehicle (all in DMSO) were diluted in complete medium to obtain 2x working solutions (1% DMSO). Cell medium was replaced by fresh complete medium (50 µL), treatment was started by addition of the 2x working solutions (50 µL) and plates were incubated at 37°C for 72 h. Cell medium was replaced by fresh serum free medium (100 µL) and cells were fixed by addition of 30 µL 50% (w/v) aq. trichloroacetic acid after which the plates were incubated at 4°C for 60 min. Wells were emptied by shaking the plates upside down after which wells were washed three times with demineralized water and air-dried overnight. To each well, 60 µL of SRB solution (0.4% (w/v) in 1% aq. acetic acid) was added and plates were incubated for 30 min. The excess SRB was removed and the wells were washed three times with 1% aq. acetic acid and air-dried overnight. Bound SRB was redissolved by addition of 150 µL 10 mM TRIS (free-base) and absorbance was measured at 540 nm on a CLARIOstar plate reader. Data was normalized between t0 and nontreated controls and plotted using GraphPad Prism 8.0 using "Nonlinear regression (curve fit)" and "log(inhibitor) vs. normalized response - Variable slope" to determine pIC50 values.
Inhibition is indicated as pIC50 ("-" = not measured). Compounds having an activity designated as "A" provided an pIC50 ≥ 6.0 (IC50 ≤1 µM); compounds having an activity designated as "B" provided an 5.3 ≤ pIC50 < 6.0 (1 µM<IC50 ≤ 5 µM); compounds having an activity designated as "C" provided an 5.0 ≤ pIC50 < 5.3 (5 µM < IC50 ≤ 10 µM); compounds having an activity designated as "D" provided an 5.0 < pIC50 ≤ 4.7 (10 µM < IC50 ≤ 20 µM); and compounds having an activity designated as "E" provided an pIC50 < 4.7 (IC50 >20 µM).

T1 sequence (O43683 whole entry): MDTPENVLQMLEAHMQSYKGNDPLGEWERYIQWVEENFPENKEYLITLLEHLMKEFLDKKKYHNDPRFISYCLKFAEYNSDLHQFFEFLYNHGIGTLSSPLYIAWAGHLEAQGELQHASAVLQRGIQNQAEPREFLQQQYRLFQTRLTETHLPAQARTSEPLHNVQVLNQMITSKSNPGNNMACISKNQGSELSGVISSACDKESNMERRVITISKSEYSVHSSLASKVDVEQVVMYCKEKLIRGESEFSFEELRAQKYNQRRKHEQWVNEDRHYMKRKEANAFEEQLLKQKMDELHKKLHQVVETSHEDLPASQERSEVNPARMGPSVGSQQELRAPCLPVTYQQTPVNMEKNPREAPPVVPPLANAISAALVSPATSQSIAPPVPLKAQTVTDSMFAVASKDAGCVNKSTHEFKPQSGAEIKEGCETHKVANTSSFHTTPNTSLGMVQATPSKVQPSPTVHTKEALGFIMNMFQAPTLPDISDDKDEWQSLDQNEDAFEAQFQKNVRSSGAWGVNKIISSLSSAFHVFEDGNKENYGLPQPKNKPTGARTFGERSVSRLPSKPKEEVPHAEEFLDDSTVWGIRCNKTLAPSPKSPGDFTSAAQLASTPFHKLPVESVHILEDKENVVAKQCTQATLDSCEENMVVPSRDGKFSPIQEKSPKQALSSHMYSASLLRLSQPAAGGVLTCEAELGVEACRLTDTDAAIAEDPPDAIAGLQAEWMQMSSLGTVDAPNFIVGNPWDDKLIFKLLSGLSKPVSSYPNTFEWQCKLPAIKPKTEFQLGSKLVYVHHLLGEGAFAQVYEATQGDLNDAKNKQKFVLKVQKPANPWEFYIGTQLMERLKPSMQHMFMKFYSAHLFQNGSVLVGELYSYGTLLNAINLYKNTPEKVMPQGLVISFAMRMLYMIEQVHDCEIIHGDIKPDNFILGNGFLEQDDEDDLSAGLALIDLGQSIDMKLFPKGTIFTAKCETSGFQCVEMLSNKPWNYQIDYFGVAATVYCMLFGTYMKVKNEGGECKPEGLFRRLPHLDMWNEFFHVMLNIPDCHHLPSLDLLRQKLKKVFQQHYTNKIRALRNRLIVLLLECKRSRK
T1 sequence (O43684 whole entry partner): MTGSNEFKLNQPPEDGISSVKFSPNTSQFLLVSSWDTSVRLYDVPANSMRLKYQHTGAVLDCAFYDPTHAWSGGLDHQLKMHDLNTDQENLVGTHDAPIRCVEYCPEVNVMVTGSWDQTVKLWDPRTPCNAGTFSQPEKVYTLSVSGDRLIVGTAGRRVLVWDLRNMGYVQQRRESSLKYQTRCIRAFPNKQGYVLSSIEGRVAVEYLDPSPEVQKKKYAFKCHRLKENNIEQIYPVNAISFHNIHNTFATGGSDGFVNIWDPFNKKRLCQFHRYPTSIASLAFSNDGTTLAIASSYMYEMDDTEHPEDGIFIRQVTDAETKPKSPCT

IC50 [1] [nM] | IC50 [2] [nM] | Structure (SMILES)
100 to 501 | ≤ 1000 | COc1cnc(-c2ccc(F)cc2)nc1Nc1c[nH]nc1-c1nc2cc(CN3CCOCC3)ccc2[nH]1 [Compound 61, 2-(4-Fluorophenyl)-5-methoxy-N-(3-(5-(morpholinomethyl)-1H-benzo[d]imidazol-2-yl)-1H-pyrazol-4-yl)pyrimidin-4-amine]
≤ 100 | 1000 to 5010 | Clc1cccc(-c2nccc(Nc3c[nH]nc3-c3nc4cc(CN5CCOCC5)ccc4[nH]3)n2)c1 [Compound 41, 2-(3-Chlorophenyl)-N-(3-(5-(morpholinomethyl)-1H-benzo[d]imidazol-2-yl)-1H-pyrazol-4-yl)pyrimidin-4-amine]
≤ 100 | ≤ 1000 | C#Cc1ccc(F)c(-c2ncc(OC)c(Nc3c[nH]nc3-c3nc4cc(CN5CCOCC5)ccc4[nH]3)n2)c1F [Compound 60, 2-(3-Ethynyl-2,6-difluorophenyl)-5-methoxy-N-(3-(5-(morpholinomethyl)-1H-benzo[d]imidazol-2-yl)-1H-pyrazol-4-yl)pyrimidin-4-amine]
≤ 100 | 1000 to 5010 | Fc1c(Cl)cccc1-c1nccc(Nc2c[nH]nc2-c2nc3cc(CN4CCOCC4)ccc3[nH]2)n1 [Compound 45, 2-(3-Chloro-2-fluorophenyl)-N-(3-(5-(morpholinomethyl)-1H-benzo[d]imidazol-2-yl)-1H-pyrazol-4-yl)pyrimidin-4-amine]
≤ 100 | ≤ 1000 | C#Cc1cccc(-c2ncc(OC)c(Nc3c[nH]nc3-c3nc4cc(CN5CCOCC5)ccc4[nH]3)n2)c1F [Compound 56, 2-(3-Ethynyl-2-fluorophenyl)-5-methoxy-N-(3-(5-(morpholinomethyl)-1H-benzo[d]imidazol-2-yl)-1H-pyrazol-4-yl)pyrimidin-4-amine]
≤ 100 | 1000 to 5010 | Fc1ccc(Cl)cc1-c1nccc(Nc2c[nH]nc2-c2nc3cc(CN4CCOCC4)ccc3[nH]2)n1 [Compound 47, 2-(5-Chloro-2-fluorophenyl)-N-(3-(5-(morpholinomethyl)-1H-benzo[d]imidazol-2-yl)-1H-pyrazol-4-yl)pyrimidin-4-amine]
≤ 100 | ≤ 1000 | COc1cnc(-c2cccc(Cl)c2)nc1Nc1c[nH]nc1-c1nc2cc(CN3CCOCC3)ccc2[nH]1 [Compound 51, 2-(3-Chlorophenyl)-5-methoxy-N-(3-(5-(morpholinomethyl)-1H-benzo[d]imidazol-2-yl)-1H-pyrazol-4-yl)pyrimidin-4-amine]
≤ 100 | ≤ 1000 | C#Cc1cccc(-c2nccc(Nc3c[nH]nc3-c3nc4cc(CN5CCOCC5)ccc4[nH]3)n2)c1F [Compound 46, 2-(3-Ethynyl-2-fluorophenyl)-N-(3-(5-(morpholinomethyl)-1H-benzo[d]imidazol-2-yl)-1H-pyrazol-4-yl)pyrimidin-4-amine]
≤ 100 | ≤ 1000 | C#Cc1ccc(F)c(-c2ncc(OC)c(Nc3c[nH]nc3-c3nc4cc(CN5CCOCC5)ccc4[nH]3)n2)c1 [Compound 58, 2-(5-Ethynyl-2-fluorophenyl)-5-methoxy-N-(3-(5-(morpholinomethyl)-1H-benzo[d]imidazol-2-yl)-1H-pyrazol-4-yl)pyrimidin-4-amine]
≤ 100 | 1000 to 5010 | C#Cc1cccc(-c2nccc(Nc3c[nH]nc3-c3nc4cc(CN5CCOCC5)ccc4[nH]3)n2)c1 [Compound 42, 2-(3-Ethynylphenyl)-N-(3-(5-(morpholinomethyl)-1H-benzo[d]imidazol-2-yl)-1H-pyrazol-4-yl)pyrimidin-4-amine]
100 to 501 | 1000 to 5010 | c1ccc(-c2nccc(Nc3c[nH]nc3-c3nc4cc(CN5CCOCC5)ccc4[nH]3)n2)cc1 [Compound 16, N-(3-(5-(morpholinomethyl)-1H-benzo[d]imidazol-2-yl)-1H-pyrazol-4-yl)-2-phenylpyrimidin-4-amine]
100 to 501 | ≤ 1000 | COc1cnc(-c2cccc(C(F)(F)F)c2)nc1Nc1c[nH]nc1-c1nc2cc(CN3CCOCC3)ccc2[nH]1 [Compound 53, 5-Methoxy-N-(3-(5-(morpholinomethyl)-1H-benzo[d]imidazol-2-yl)-1H-pyrazol-4-yl)-2-(3-(trifluoromethyl)phenyl)pyrimidin-4-amine]
≤ 100 | ≤ 1000 | COc1cnc(-c2cccc(Cl)c2F)nc1Nc1c[nH]nc1-c1nc2cc(CN3CCOCC3)ccc2[nH]1 [Compound 55, 2-(3-Chloro-2-fluorophenyl)-5-methoxy-N-(3-(5-(morpholinomethyl)-1H-benzo[d]imidazol-2-yl)-1H-pyrazol-4-yl)pyrimidin-4-amine]
